Results as given in article PMC7241010, “In Vivo and In Vitro Study of N-Methyltaurine on Pharmacokinetics and Antimuscle Atrophic Effects in Mice” (ACS Omega, 2020).
Read-outs that look alike come from different tables or passages of the source. Blank lines part the entries; values can stand above or below the compound they belong to.

Legend:
[1] = system: taurine transport system; conditions: human intestine cells, cited from earlier work
[2] = system: C2C12 myotubes; conditions: in vitro exposure to dexamethasone; cited from earlier work
[3] = rats; cited from earlier work
[4] = system: ICR mice; experiment: Dexamethasone-induced muscle atrophy model in ICR mice; assay type: in vivo, mouse
Method: Next, to investigate the effect of NMT on skeletal muscle atrophy, a mouse atrophy model induced by Dex was employed[41] (Figure 5). Mice were administered with Dex daily (i.p., 10 mg/kg body weight) and maintained on drinking water either with no addition or containing 0.5% NMT.
To induce muscle atrophy in ICR mice, Dex was suspended in saline (10 mg/mL), and the mixture was intraperitoneally (i.p.) injected at 10 mg/kg body weight once a day for 10 days.[41] Body weight was monitored daily. Then, mice were euthanized by cervical dislocation, and muscles were isolated from the mice. The isolated tissue was immediately froze in liquid nitrogen and stored at −80 °C.

[5] = system: C2C12 myotubes; experiment: Dex-induced myotube atrophy in C2C12 cells (myotube diameter); assay type: cell-based, mouse; conditions: 24 h
Method: To explore the beneficial effect of NMT against skeletal muscle atrophy in mice, we investigated its protective effect using cultures of C2C12 myotubes.
C2C12 mouse myoblasts were purchased from ATCC (American Type Culture Collection) and were cultured in DMEM containing 10% fetal bovine serum. Cell lines were not tested for mycoplasma contamination in the present study. To induce differentiation of the myotubes, cells were cultured in DMEM containing 2% fetal bovine serum for 1 week. After differentiation, cells were treated with Dex (final concentration, 50 μM) with or without NMT.[28] Myotube diameter was measured from microscopic images taken after treatment with Dex.

[6] = Pharmacokinetics and oral bioavailability of NMT in mice (plasma NMT by HPLC); assay type: in vivo, mouse; conditions: for AUC(0-t): read-out: AUC0–180min (converted)
Method: To study the pharmacokinetic parameters and the oral bioavailability of NMT, we tested the serum concentration of NMT after p.o. or i.v. injection of NMT (Figure 2). Biological fluid was sampled following the injection of NMT. […] Oral bioavailability is defined as the fraction of the dose that reaches the systemic circulation. Blood samples were collected at 10 to 180 min after NMT administration and then examined by HPLC.
All experimental procedures were approved by the Institutional Animal Care and Use Committee of the Fukui Prefectural University. Three-month-old male ICR mice were used for this study. […] Blood samples were collected from the facial vein (for i.v. injection) or the tail vein (for p.o. injection) at 10, 20, 30, 60, 120, and 180 min after NMT administration.
(§1) Plasma samples were mixed with an equal volume of 5% sulfosalicylic acid (SSA) containing the internal standard chemical sarcosine (0.1 mM). Tissues in 10 volumes of 5% SSA containing an internal control were homogenized using a Polytron homogenizer. Samples were centrifuged, and the supernatant was filtered with 0.45 μm filters and then neutralized with NaHCO3.
(§2) NMT was measured by HPLC after derivatization with 9-fluorenylmethyloxycarbonyl chloride (FMOC-Cl) according to a previous report with brief modification.[49] First, equal volumes of o-phthalaldehyde (OPA) reagent (5 mM OPA, 23 mM 3-mercaptopropionic acid, 10 mM boric acid, pH 10.4) was added to acid-extracted samples and incubated at room temperature for 1 min for the derivatization of the primary amine. Then, 1 volume of FMOC-Cl reagent (3 mM FMOC-Cl in acetone) was added to the mixture and incubated for additional 1 min for the derivatization of residual secondary amine. After dilution with HPLC mobile phase buffer A (10 mM potassium phosphate, pH 7.3), samples were subjected to HPLC analysis performed on an UltiMate 3000 rapid separation binary system (Thermo Fisher, USA) or Prominence HPLC system (Shimadzu, Japan). Samples were injected into a ZORBAX Eclipse Plus C18 column (Agilent, USA). Mobile phases A (10 mM potassium phosphate, pH 7.3) and B (acetonitrile) were used. The column oven temperature was set at 40 °C. The flow rate of the mobile phase was 1.5 mL/min. The gradient of the mobile phase was increased from 2 to 88% buffer B (from 0.84 to 11.9 min) and was kept at 100% buffer B for 3 min followed by 2% for 15 min. N-Methyltaurine derivatized by FMOC-Cl was monitored by a fluorescence detector (excitation: 266 nm, emission: 305 nm) and diode array detector (Shimadzu).
Pharmacokinetic parameters were calculated by using R (Package “PK”, ver. 1.3-4).

[7] = Tissue distribution of NMT after 0.5% NMT in drinking water; assay type: in vivo, mouse; conditions: mice
Method: To evaluate the tissue distribution of NMT in mice after administration in the drinking water, the concentration of NMT was measured in tissues and serum 4 days after the original administration (Figure 3). The tissue concentration of NMT was analyzed by HPLC. NMT was widely distributed in the tissues of mice, including in brain, liver, kidney, heart, and muscles. The tissue concentration of NMT was much higher than that of serum concentration, with one exception, the skin (Figure 3).
To measure NMT in the serum and tissues after long-term treatment with NMT, NMT dissolved in the drinking water (0.5%) was given to mice for 4 days. After that, mice were anesthetized by medetomidine (0.3 mg/kg body weight; FUJIFILM Wako Pure Chemical), butorphanol (5 mg/kg body weight; FUJIFILM Wako Pure Chemical), and midazolam (4 mg/kg body weight; FUJIFILM Wako Pure Chemical), and then blood and tissues were collected. Tissues were kept in −80 °C until use.
as §1, §2

[8] = system: taurine uptake in brain slices; conditions: cited from earlier work
[9] = system: Atrogin-1 and MuRF1; experiment: Gene expression of Atrogin-1 and MuRF1 in C2C12 myotubes (qRT-PCR); assay type: cell-based, mouse; conditions: C2C12 myotubes treated with Dex and NMT
Method: We tested whether these ubiquitin ligases are involved in the suppressive effect of NMT against muscle atrophy in the C2C12 myotube.
Total RNA was isolated from C2C12 cells using Sepasol Super G (Nacalai Tesque, Kyoto, Japan), and cDNA was generated by using ReverTra Ace (Toyobo, Osaka, Japan). Quantitative RT-PCR analysis was performed using Applied Biosystems StepOne (Applied Biosystems) with THUNDERBIRD SYBR qPCR Mix (Toyobo). The primers used are as follows: Atrogin-1 forward: 5′-TTCAG CAGCC TGAAC TACGA-3′, reverse: 5′-AGTAT CCATG GCGCT CCTTC-3′. MuRF1 forward: 5′-GCGTG ACCAC AGAGG GTAAA-3′, reverse: 5′-CTCTG CGTCC AGAGC GTG-3′. GAPDH forward: 5′-GCCGG TGCTG AGTAT GTCGT-3′, reverse: 5′-CCCTT TTGGC TCCAC CCTT-3′.

[10] = Dex i.p. 10 mg/kg daily for 10 days, 0.5% NMT in drinking water
[11] = drinking water containing 0.5% NMT for 4 days, average

Compound: NCCS(=O)(=O)O [taurine]
- concentration at which transport activity is almost saturated [1]: ~50 µM
- Km ([1]; read-out: Km of taurine transport): 4.8 µM
- effect on Dex-induced muscle atrophy in vitro [2]: attenuates muscle atrophy
- oral bioavailability [3]: ~100%

- effect on myotube width ([5]; Dex 50 μM): reduced the width of the myotube
Compound: C[C@@H]1C[C@H]2[C@@H]3CCC4=CC(=O)C=C[C@]4(C)[C@@]3(F)[C@@H](O)C[C@]2(C)[C@@]1(O)C(=O)CO [Dex, dexamethasone, reference compound]
- effect on body weight ([4]; Dex i.p. 10 mg/kg body weight daily): caused a continuous loss of body weight

Compound: CNCCS(=O)(=O)O [NMT, N-Methyltaurine]
- effect on Dex-induced loss in wet weight of gastrocnemius muscle [4, 10]: attenuated Dex-induced loss in wet weight
- effect on Dex-induced loss in wet weight of tibial anterior muscle [4, 10]: attenuated Dex-induced loss in wet weight
- effect on Dex-induced body weight loss ([4]; Dex i.p. 10 mg/kg daily, 0.5% NMT in drinking water): attenuated body weight loss
- AUC(0-t) ([6]; male, ICR, mouse, iv, i.v. 0.5 mg/kg BW, plasma): 900 ng·h/mL
- bioavailability ([6]; male, ICR, mouse, plasma, oral, 0.5 mg/kg, p.o. 0.5 mg/kg BW vs i.v. 0.5 mg/kg BW, read-out: bioavailability): 96%
- bioavailability ([6]; male, ICR, mouse, plasma, oral, 5 mg/kg BW, p.o. 5 mg/kg BW vs i.v. 0.5 mg/kg BW, read-out: bioavailability): 58%
- AUC(0-t) ([6]; male, ICR, mouse, po, p.o. 0.5 mg/kg BW, plasma): 865 ng·h/mL
- AUC(0-t) ([6]; male, ICR, mouse, po, p.o. 5 mg/kg BW, plasma): 5250 ng·h/mL
- bioavailability ([6]; p.o. 0.5 mg/kg BW vs i.v. 0.5 mg/kg BW, 0.5 mg/kg): 96.1%
- Kp at 4 days ([7]; ICR, mouse, 0.5 % in drinking water, oral NMT, various tissues, skin is an exception, read-out: tissue NMT relative to serum concentration of NMT): 10 to 100
- Tissue NMT, brain [7, 11]: 0.84 nmol/g wet
- Tissue NMT, heart [7, 11]: 3.5 nmol/g wet
- Tissue NMT, kidney [7, 11]: 0.39 nmol/g wet
- Tissue NMT, liver [7, 11]: 0.50 nmol/g wet
- Tissue NMT, muscle [7, 11]: 0.17 nmol/g wet
- Tissue NMT, serum [7, 11]: 0.033 nmol/g wet
- Tissue NMT, skin [7, 11]: 0.019 nmol/g wet
- effect on taurine uptake [8]: inhibits taurine uptake
- effect on Dex-induced Atrogin-1 and MuRF1 gene expression [9]: did not act by downregulating those genes
- effect on Dex-induced decline in myotube width ([5]; Dex 50 μM + NMT 20 mM): prevented the decline in myotube width
